This data set concerns MDA-MB-231 human breast cancer cells. As to the kind of experiment: Material cytotoxicity by MTT assay. The following applies: under the condition of the present disclosure, including products after UV irradiation. As for the experimental part:
Then the drug delivery systems of Example 1 with different concentrations are tested for their cytotoxicity. […] The MDA-MB-231 human breast cancer cells are treated with 0.1, 1, 2, 5, 10 and 20 μg/mL of the drug delivery system of Example 1 for 6 hours, respectively, and then further incubated for another 24 hours. The cell viability is measured by the MTT assay.
(Tetrazolium assays rely on reduction of a dye to a coloured formazan, in cell work by metabolically active cells.)

As to `OCc1ccc2ccc3cccc4ccc1c2c34` [pyrenemethanol], the “harm to the cells” value was “not harmful”.

These data come from US20200197320A1, “DRUG CARRIER AND DRUG DELIVERY SYSTEM THEREOF” (NATIONAL TSING HUA UNIVERSITY, priority 2018, published 2020).
